Results: patent US20070196395A1, “Immunomodulatory compounds that target and inhibit the py'binding site of tyrosene kinase p56 lck sh2 domain” (priority 2003, published 2007)

Key:
[1] = tested on: lymphocytes from two different strains of mice (B6 black and balb/c); experiment: Mixed lymphocyte culture, 3H-thymidine uptake; assay type: cell-based, mouse; details: 100 μM to 1 μM; biphasic = inhibition at 100 μM, activation at 1 μM
Description: 100 mM solutions of compounds were prepared in DMSO.
Mixed lymphocyte culture assays were performed where lymphocytes from two different strains of mice with different histocompatibility antigens were mixed. Due to the difference in the histocompatibility antigens, resting T cells from both strains of mice will undergo blast transformation and propagate. As in any T cell activation process, the activation of Lck is essential. Therefore, the modulation of activation of Lck can be quantified as the downstream modulation in the levels of ^3H-TdR incorporation into DNA. 24 out of the 34 identified compounds were tested […], with 13 compounds showing inhibitory activity at a 100 μM concentration (FIG. 2). Thus, over 50% of the compounds identified by the in vitro assay also show activity in the cellular functional assay at the conditions described herein. These compounds represent the most promising leads for further development. […] Such effects may be associated with the regulatory mechanism of p56 Lck.
Another readout assay that is used to measure biological response is a mixed lymphocyte culture assay in which lymphocytes from two. different strains of mice with different histocompatibility antigens are mixed. Due to the difference in the histocompatibility antigens, resting T cells from both strains of mice undergo blast transformation and propagate. As in any T cell activation process, the activation of p56^lck is essential. Therefore, the modulation of p56^lck activity can be quantified as the downstream modulation in the levels of [^3H]-TdR incorporation into DNA.
Lymph node or splenic lymphocytes are harvested from two different allogeneic strains of mice. Cells (1×10^6) from each strain are mixed in 96 well culture plates containing 200 μl of culture medium in the presence or absence of the compound (0.1˜100 μM) and cultured for 72 h. Six hours before harvest, 0.5 μCi of [^3H]-TdR is added to each well. […] Filters are washed with PBS and then with ethanol and [^3H]-TdR incorporated into DNA is measured using scintillation counting. […]

SH2 domain of p56 Lck = SH2 domain of p56 Lck (Homo sapiens, UniProt P06239); experiment: Inhibition of binding of the CD3ζ ITAM2 peptide to the SH2 domain of p56 Lck (affinity precipitation from Jurkat cell lysate, immunoblot); details: 100 μM; decreased blot intensity vs control
Chain of SH2 domain of p56 Lck (P06239 whole entry, the tested form may be a part): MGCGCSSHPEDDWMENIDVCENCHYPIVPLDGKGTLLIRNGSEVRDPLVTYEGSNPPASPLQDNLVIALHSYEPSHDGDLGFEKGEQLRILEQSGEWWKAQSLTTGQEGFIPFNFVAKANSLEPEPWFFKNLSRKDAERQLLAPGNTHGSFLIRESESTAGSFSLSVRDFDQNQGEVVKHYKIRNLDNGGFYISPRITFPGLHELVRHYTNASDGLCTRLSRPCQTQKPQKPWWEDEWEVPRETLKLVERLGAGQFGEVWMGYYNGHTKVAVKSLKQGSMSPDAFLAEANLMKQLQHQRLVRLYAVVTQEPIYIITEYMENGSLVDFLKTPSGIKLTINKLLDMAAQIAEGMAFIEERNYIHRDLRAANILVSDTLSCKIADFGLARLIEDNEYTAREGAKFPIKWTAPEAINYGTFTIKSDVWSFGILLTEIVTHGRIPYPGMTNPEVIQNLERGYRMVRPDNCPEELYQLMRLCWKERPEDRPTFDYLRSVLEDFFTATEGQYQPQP
Description: In vitro Assay for the Inhibition of Binding of the CD3ζ ITAM2 Peptide to the SH2 Domain of p56 Lck. […] Inhibition of binding was assayed by affinity precipitation of p56Lck in cell lysates as follows.
Confluent cells were harvested, washed 3 times in chilled, sterile phosphate buffered saline (PBS, BioSource), and were resuspended (5×10^5 /ml) in lysis buffer containing 1% Triton X-100 (Fisher), 1 mM EDTA (Fisher), 0.2 mM sodium orthovanadate, 500 μM AEBSF, 150 nM aprotinin, 1 μM E-64, 0.5 mM EDTA, and 1 μM leupeptin (Protease Cocktail Set I, Calbiochem, San Diego, Calif.). The suspension was sonicated on ice at 60 W power (VibraCell, Sonics and Materials, Danbury, Conn.) for 6×5 second bursts with a 1 minute cooling period between bursts. The resulting lysate was then centrifuged at 20,000 x g (RC-5B, Sorvall, Newtown, Conn.) at 4° C., and the supernatent was used in the assay.
Putative inhibitors to be tested were freshly dissolved in dimethyl sulfoxide (DMSO, cell culture grade, Sigrna) at a concentration of 10 mM before the assay and 10 μl of this was added to 1 ml of cell lysate in 1.5 ml tubes (Sarstedt, Newton, North Carolina). The tubes were placed on an end-over-end rotator (Model C400110, Barnstead/Thermolyne, Dubuque, Iowa) at 4° C. and allowed to rotate for 30 minutes. 20 μl of a 50% slurry of the ITAM-conjugated agarose beads (in PBS; EM Science, Gibbstown, New Jersey) was then added to each tube, and tubes were rotated overnight.
The beads were washed 3 times in 800 μl lysis buffer. Excess lysis buffer was aspirated off, and 10 ml sample loading buffer containing 3% β-mercaptoethanol (Fisher) was added to the beads and, after brief vortexing and soiication, tubes were immersed in a boiling water bath for 2 minutes. They were then centrifuged and the supernatent was loaded onto 8% Tris-HCl gels (GeneMate, ISC Bioexpress, Kaysville, Utah) and run at 100 V for 1.5 hours in a Protean III Mini Gel Unit (Bio-Rad, Hercules, Calif.). The gels were transferred onto polyvinylidene fluoride membrane (Immobilon-P, Millipore, Bedford, Mass.) in a Mini Trans-Blot Electrophoretic Transfer Cell ,(Bio-Rad). The membrane was blocked with PBS (EM Science) solution containing 5% powdered milk (Nestle, Solon, Ohio) for 1 hour; exposed to primary antibody (anti-lck, rabbit polyclonal IgG, Upstate Biotechnologies, Lake Placid, N.Y.) at 1:5000 dilution in 1% w/v powdered milk (Nestle, Solon, Ohio) in PBST [PBS containing 0.5% v/v Tween 20 (Sigma, St. Louis, Mo.)] and washed 3 times for 5 minutes each in PBST. […]

SMILES	activity profile in mixed lymphocyte culture assay across tested concentrations [1]	inhibition of p56 Lck SH2 domain association with phosphotyrosine-containing ITAM2 peptide (SH2 domain of p56 Lck)
N=C1S/C(=C/c2ccc(-c3cccc(C(=O)O)c3)o2)C(=O)N1c1ccc(F)cc1 [Compound 73]	inhibition	–
Cc1ccc(NC(=O)c2cccc(NC(=O)c3ccccc3C(=O)O)c2)cc1C [Compound 99]	Biphasic	–
COc1ccc(OC)c(NC(=O)CCNC(=O)Cn2cnc3ccccc3c2=O)c1 [Compound 139]	Biphasic	–
O=C(O)CSc1nsc(SCC(=O)O)n1 [Compound 232]	–	significant inhibitory activities
Nc1nnc(SCc2ccc(C(=O)O)cc2)s1 [Compound 239]	–	significant inhibitory activities
O=C(O)CC1S/C(=N\N=C2\CCCc3ccccc32)NC1=O (stereo not shown) [Compound 245]	–	significant inhibitory activities
O=C(O)CSc1cccnc1Sc1ccc(Cl)cc1 [Compound 262]	–	significant inhibitory activities
